Test results from US20250230193A1, “CYCLIC COMPOUND HAVING SELECTIVE KRAS INHIBITORY EFFECT ON HRAS AND NRAS” (CHUGAI SEIYAKU KABUSHIKI KAISHA, priority 2022, published 2025).

Legend:
[1] = target: GDP-bound NRAS wild-type protein (Homo sapiens, UniProt P01111); experiment: Binding to NRAS by surface plasmon resonance (SPR), Single Cycle Kinetics; conditions: KD ratio NRAS/KRAS, class symbols
[2] = target: GDP-bound HRAS wild-type protein (Homo sapiens, UniProt P01112); experiment: Binding to HRAS by surface plasmon resonance (SPR), Single Cycle Kinetics; conditions: KD ratio HRAS/KRAS, class symbols
Chain of GDP-bound HRAS wild-type protein (P01112 whole entry): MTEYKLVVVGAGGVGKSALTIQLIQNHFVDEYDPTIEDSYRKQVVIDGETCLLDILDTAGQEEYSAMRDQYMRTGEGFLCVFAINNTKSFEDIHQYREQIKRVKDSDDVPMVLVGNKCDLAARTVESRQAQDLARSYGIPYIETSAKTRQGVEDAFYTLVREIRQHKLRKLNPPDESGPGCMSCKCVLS

Chain of GDP-bound NRAS wild-type protein (P01111 whole entry): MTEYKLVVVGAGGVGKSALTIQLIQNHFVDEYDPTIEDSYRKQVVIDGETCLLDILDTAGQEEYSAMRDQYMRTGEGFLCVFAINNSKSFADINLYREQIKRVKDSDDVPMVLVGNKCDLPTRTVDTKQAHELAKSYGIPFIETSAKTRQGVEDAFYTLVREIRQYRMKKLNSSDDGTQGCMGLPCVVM

`CCC[C@H]1C(=O)N[C@@H]([C@@H](C)CC)C(=O)N(C)CC(=O)N(C)[C@H]2C/C=C\CCN(C2=O)[C@@H](Cc2ccc(C)cc2)C(=O)N(C)CC(=O)N[C@@H](CCc2ccc(Cl)c(Cl)c2)C(=O)N2C[C@H](OCC)C[C@H]2C(=O)NC2(CC(C)(C)C2)C(=O)N(C)[C@@H](CC(C)(C)C)C(=O)N(C)[C@H](C(=O)N(C)C)CC(=O)N1C` [PP2714] was tested, and the “NRAS/KRAS (ratio of KD value with respect to GDP-bound NRAS wild-type protein to KD value with respect to KRAS)” value [1] was “A (a compound having 10 or more and less than 20 is denoted as A)” and the “HRAS/KRAS (ratio of KD value with respect to GDP-bound HRAS wild-type protein to KD value with respect to KRAS)” value [2] was “A (a compound having 10 or more and less than 20 is denoted as A)”.
With `CCCOC[C@H]1C(=O)N[C@@H]([C@@H](C)CC)C(=O)N(C)CC(=O)N(C)[C@H]2C/C=C\CCN(C2=O)[C@@H](Cc2ccc(C)cc2)C(=O)N(C)CC(=O)N[C@@H](CCc2ccc(Cl)c(Cl)c2)C(=O)N2C[C@H](OCC)C[C@H]2C(=O)NC2(CC(C)(C)C2)C(=O)N(C)[C@@H](CC(C)(C)C)C(=O)N(C)[C@H](C(=O)N(C)C)CC(=O)N1C` [PP2716] the “NRAS/KRAS (ratio of KD value with respect to GDP-bound NRAS wild-type protein to KD value with respect to KRAS)” value [1] was “A (a compound having 10 or more and less than 20 is denoted as A)” and the “HRAS/KRAS (ratio of KD value with respect to GDP-bound HRAS wild-type protein to KD value with respect to KRAS)” value [2] was “A (a compound having 10 or more and less than 20 is denoted as A)”.
`CCC[C@H]1C(=O)N[C@@H]([C@@H](C)CC)C(=O)N(C2CC2)CC(=O)N(C)[C@H]2C/C=C\CCN(C2=O)[C@@H](Cc2ccc(C)cc2)C(=O)N(C)CC(=O)N[C@@H](CCc2cc(F)c(C(F)(F)F)c(F)c2)C(=O)N2C[C@H](OCC)C[C@H]2C(=O)NC2(CC(C)(C)C2)C(=O)N(C)[C@@H](CC(C)(C)C)C(=O)N(C)[C@H](C(=O)N(C)C)CC(=O)N1C` [PP2718] was tested, and the “NRAS/KRAS (ratio of KD value with respect to GDP-bound NRAS wild-type protein to KD value with respect to KRAS)” value [1] was “A (a compound having 10 or more and less than 20 is denoted as A)” and the “HRAS/KRAS (ratio of KD value with respect to GDP-bound HRAS wild-type protein to KD value with respect to KRAS)” value [2] was “A (a compound having 10 or more and less than 20 is denoted as A)”.
In the case of `CCOC[C@H]1C(=O)N[C@@H]([C@@H](C)CC)C(=O)N(C2CC2)CC(=O)N(C)[C@H]2C/C=C\CCN(C2=O)[C@@H](Cc2ccc(C)cc2)C(=O)N(C)CC(=O)N[C@@H](CCc2cc(F)c(C(F)(F)F)c(F)c2)C(=O)N2C[C@H](OCC)C[C@H]2C(=O)NC2(CC(C)(C)C2)C(=O)N(C)[C@@H](CC(C)(C)C)C(=O)N(C)[C@H](C(=O)N(C)C)CC(=O)N1C` [PP2720], the “NRAS/KRAS (ratio of KD value with respect to GDP-bound NRAS wild-type protein to KD value with respect to KRAS)” value [1] is reported as “A (a compound having 10 or more and less than 20 is denoted as A)” and the “HRAS/KRAS (ratio of KD value with respect to GDP-bound HRAS wild-type protein to KD value with respect to KRAS)” value [2] is reported as “A (a compound having 10 or more and less than 20 is denoted as A)”.
In the case of `CCC[C@H]1C(=O)N[C@@H]([C@@H](C)CC)C(=O)N(C2CC2)CC(=O)N(C)[C@H]2C/C=C\CCN(C2=O)[C@@H](Cc2ccc(C)cc2)C(=O)N(C)CC(=O)N[C@@H](CCc2ccc(C(F)(F)F)c(OC)c2)C(=O)N2C[C@H](OCC)C[C@H]2C(=O)NC2(CC(C)(C)C2)C(=O)N(C)[C@@H](CC(C)(C)C)C(=O)N(C)[C@H](C(=O)N(C)C)CC(=O)N1C` [PP2722], the “NRAS/KRAS (ratio of KD value with respect to GDP-bound NRAS wild-type protein to KD value with respect to KRAS)” value [1] is reported as “B (a compound having 3 or more and less than 10 is denoted as B)” and the “HRAS/KRAS (ratio of KD value with respect to GDP-bound HRAS wild-type protein to KD value with respect to KRAS)” value [2] is reported as “B (a compound having 3 or more and less than 10 is denoted as B)”.
For `CCOC[C@H]1C(=O)N[C@@H]([C@@H](C)CC)C(=O)N(C2CC2)CC(=O)N(C)[C@H]2C/C=C\CCN(C2=O)[C@@H](Cc2ccc(C)cc2)C(=O)N(C)CC(=O)N[C@@H](CCc2ccc(C(F)(F)F)c(OC)c2)C(=O)N2C[C@H](OCC)C[C@H]2C(=O)NC2(CC(C)(C)C2)C(=O)N(C)[C@@H](CC(C)(C)C)C(=O)N(C)[C@H](C(=O)N(C)C)CC(=O)N1C` [PP2724], the “NRAS/KRAS (ratio of KD value with respect to GDP-bound NRAS wild-type protein to KD value with respect to KRAS)” value [1] was “A (a compound having 10 or more and less than 20 is denoted as A)” and the “HRAS/KRAS (ratio of KD value with respect to GDP-bound HRAS wild-type protein to KD value with respect to KRAS)” value [2] was “B (a compound having 3 or more and less than 10 is denoted as B)”.
With `CCC[C@H]1C(=O)N[C@@H]([C@@H](C)CC)C(=O)N(C2CC2)CC(=O)N(C)[C@H]2C/C=C\CCN(C2=O)[C@@H](Cc2ccc(C)cc2)C(=O)N(C)CC(=O)N[C@@H](CCc2ccc(Cl)c(Cl)c2)C(=O)N2C[C@H](OCC)C[C@H]2C(=O)NC2(CC(C)(C)C2)C(=O)N(C)[C@@H](CC(C)(C)C)C(=O)N(C)[C@H](C(=O)N(C)C)CC(=O)N1C` [PP2726] the “NRAS/KRAS (ratio of KD value with respect to GDP-bound NRAS wild-type protein to KD value with respect to KRAS)” value [1] was “AA (a compound having 20 or more is denoted as AA)” and the “HRAS/KRAS (ratio of KD value with respect to GDP-bound HRAS wild-type protein to KD value with respect to KRAS)” value [2] was “A (a compound having 10 or more and less than 20 is denoted as A)”.
For `CCOC[C@H]1C(=O)N[C@@H]([C@@H](C)CC)C(=O)N(C2CC2)CC(=O)N(C)[C@H]2C/C=C\CCN(C2=O)[C@@H](Cc2ccc(C)cc2)C(=O)N(C)CC(=O)N[C@@H](CCc2ccc(Cl)c(Cl)c2)C(=O)N2C[C@H](OCC)C[C@H]2C(=O)NC2(CC(C)(C)C2)C(=O)N(C)[C@@H](CC(C)(C)C)C(=O)N(C)[C@H](C(=O)N(C)C)CC(=O)N1C` [PP2728], the “NRAS/KRAS (ratio of KD value with respect to GDP-bound NRAS wild-type protein to KD value with respect to KRAS)” value [1] was “AA (a compound having 20 or more is denoted as AA)” and the “HRAS/KRAS (ratio of KD value with respect to GDP-bound HRAS wild-type protein to KD value with respect to KRAS)” value [2] was “A (a compound having 10 or more and less than 20 is denoted as A)”.
For `CCOC[C@H]1C(=O)N[C@@H]([C@@H](C)CC)C(=O)N(C)CC(=O)N(C)[C@H]2C/C=C\CCN(C2=O)[C@@H](Cc2ccc(C(F)(F)F)cc2)C(=O)N(C)CC(=O)N[C@@H](CCc2cc(F)c(C(F)(F)F)c(F)c2)C(=O)N2C[C@H](OCC)C[C@H]2C(=O)NC2(CC(C)(C)C2)C(=O)N(C)[C@@H](CC(C)(C)C)C(=O)N(C)[C@H](C(=O)N(C)C)CC(=O)N1C` [PP2732], the “NRAS/KRAS (ratio of KD value with respect to GDP-bound NRAS wild-type protein to KD value with respect to KRAS)” value [1] was “A (a compound having 10 or more and less than 20 is denoted as A)” and the “HRAS/KRAS (ratio of KD value with respect to GDP-bound HRAS wild-type protein to KD value with respect to KRAS)” value [2] was “A (a compound having 10 or more and less than 20 is denoted as A)”.
`CCC[C@H]1C(=O)N[C@@H]([C@@H](C)CC)C(=O)N(C)CC(=O)N(C)[C@H]2C/C=C\CCN(C2=O)[C@@H](Cc2ccc(C(F)(F)F)cc2)C(=O)N(C)CC(=O)N[C@@H](CCc2ccc(C(F)(F)F)c(OC)c2)C(=O)N2C[C@H](OCC)C[C@H]2C(=O)NC2(CC(C)(C)C2)C(=O)N(C)[C@@H](CC(C)(C)C)C(=O)N(C)[C@H](C(=O)N(C)C)CC(=O)N1C` [PP2734] was tested, and the “NRAS/KRAS (ratio of KD value with respect to GDP-bound NRAS wild-type protein to KD value with respect to KRAS)” value [1] was “A (a compound having 10 or more and less than 20 is denoted as A)” and the “HRAS/KRAS (ratio of KD value with respect to GDP-bound HRAS wild-type protein to KD value with respect to KRAS)” value [2] was “B (a compound having 3 or more and less than 10 is denoted as B)”.
In the case of `CCOC[C@H]1C(=O)N[C@@H]([C@@H](C)CC)C(=O)N(C)CC(=O)N(C)[C@H]2C/C=C\CCN(C2=O)[C@@H](Cc2ccc(C(F)(F)F)cc2)C(=O)N(C)CC(=O)N[C@@H](CCc2ccc(C(F)(F)F)c(OC)c2)C(=O)N2C[C@H](OCC)C[C@H]2C(=O)NC2(CC(C)(C)C2)C(=O)N(C)[C@@H](CC(C)(C)C)C(=O)N(C)[C@H](C(=O)N(C)C)CC(=O)N1C` [PP2736], the “NRAS/KRAS (ratio of KD value with respect to GDP-bound NRAS wild-type protein to KD value with respect to KRAS)” value [1] is reported as “A (a compound having 10 or more and less than 20 is denoted as A)” and the “HRAS/KRAS (ratio of KD value with respect to GDP-bound HRAS wild-type protein to KD value with respect to KRAS)” value [2] is reported as “A (a compound having 10 or more and less than 20 is denoted as A)”.
For `CCC[C@H]1C(=O)N[C@@H]([C@@H](C)CC)C(=O)N(C)CC(=O)N(C)[C@H]2C/C=C\CCN(C2=O)[C@@H](Cc2ccc(C(F)(F)F)cc2)C(=O)N(C)CC(=O)N[C@@H](CCc2ccc(Cl)c(Cl)c2)C(=O)N2C[C@H](OCC)C[C@H]2C(=O)NC2(CC(C)(C)C2)C(=O)N(C)[C@@H](CC(C)(C)C)C(=O)N(C)[C@H](C(=O)N(C)C)CC(=O)N1C` [PP2738], the “NRAS/KRAS (ratio of KD value with respect to GDP-bound NRAS wild-type protein to KD value with respect to KRAS)” value [1] was “AA (a compound having 20 or more is denoted as AA)” and the “HRAS/KRAS (ratio of KD value with respect to GDP-bound HRAS wild-type protein to KD value with respect to KRAS)” value [2] was “A (a compound having 10 or more and less than 20 is denoted as A)”.
`CCOC[C@H]1C(=O)N[C@@H]([C@@H](C)CC)C(=O)N(C)CC(=O)N(C)[C@H]2C/C=C\CCN(C2=O)[C@@H](Cc2ccc(C(F)(F)F)cc2)C(=O)N(C)CC(=O)N[C@@H](CCc2ccc(Cl)c(Cl)c2)C(=O)N2C[C@H](OCC)C[C@H]2C(=O)NC2(CC(C)(C)C2)C(=O)N(C)[C@@H](CC(C)(C)C)C(=O)N(C)[C@H](C(=O)N(C)C)CC(=O)N1C` [PP2740] was tested, and the “NRAS/KRAS (ratio of KD value with respect to GDP-bound NRAS wild-type protein to KD value with respect to KRAS)” value [1] was “AA (a compound having 20 or more is denoted as AA)” and the “HRAS/KRAS (ratio of KD value with respect to GDP-bound HRAS wild-type protein to KD value with respect to KRAS)” value [2] was “A (a compound having 10 or more and less than 20 is denoted as A)”.
In the case of `CCC[C@H]1C(=O)N[C@@H]([C@@H](C)CC)C(=O)N(C2CC2)CC(=O)N(C)[C@H]2C/C=C\CCN(C2=O)[C@@H](Cc2ccc(C(F)(F)F)cc2)C(=O)N(C)CC(=O)N[C@@H](CCc2cc(F)c(C(F)(F)F)c(F)c2)C(=O)N2C[C@H](OCC)C[C@H]2C(=O)NC2(CC(C)(C)C2)C(=O)N(C)[C@@H](CC(C)(C)C)C(=O)N(C)[C@H](C(=O)N(C)C)CC(=O)N1C` [PP2742], the “NRAS/KRAS (ratio of KD value with respect to GDP-bound NRAS wild-type protein to KD value with respect to KRAS)” value [1] is reported as “AA (a compound having 20 or more is denoted as AA)” and the “HRAS/KRAS (ratio of KD value with respect to GDP-bound HRAS wild-type protein to KD value with respect to KRAS)” value [2] is reported as “A (a compound having 10 or more and less than 20 is denoted as A)”.
In the case of `CCO[C@@H]1C[C@H]2C(=O)NC3(CC(C)(C)C3)C(=O)N(C)[C@@H](CC(C)(C)C)C(=O)N(C)[C@H](C(=O)N(C)C)CC(=O)N(C)[C@@H](COC)C(=O)N[C@@H]([C@@H](C)CC)C(=O)N(C3CC3)CC(=O)N(C)[C@H]3C/C=C\CCN(C3=O)[C@@H](Cc3ccc(C(F)(F)F)cc3)C(=O)N(C)CC(=O)N[C@@H](CCc3cc(F)c(C(F)(F)F)c(F)c3)C(=O)N2C1` [PP2744], the “NRAS/KRAS (ratio of KD value with respect to GDP-bound NRAS wild-type protein to KD value with respect to KRAS)” value [1] is reported as “A (a compound having 10 or more and less than 20 is denoted as A)” and the “HRAS/KRAS (ratio of KD value with respect to GDP-bound HRAS wild-type protein to KD value with respect to KRAS)” value [2] is reported as “A (a compound having 10 or more and less than 20 is denoted as A)”.
